Here are results for 23 molecules from PubChem BioAssay AID328 (DTP/NCI, 2004).

The assay has as its system BDF1 mice, P388 leukemia ip, median survival T/C. Kind of assay: NCI In Vivo Anticancer Drug Screen. Data for tumor model P388 Leukemia (intraperitoneal) in B6D2F1 (BDF1) mice. The following applies: endpoint: median survival time, higher = longer survival. The gist of the method: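 Antitumour effect was judged in vivo: survival in drug-treated mice, normalised to that of vehicle-dosed controls, gives the reported T/C.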

Setting [1] is: dose: 50.0 mg/kg/injection, schedule: Q01DX009 (ip), vehicle: saline.
Setting [2] is: dose: 100.0 mg/kg/injection, schedule: Q01DX009 (ip), vehicle: saline.
Setting [3] is: dose: 200.0 mg/kg/injection, schedule: Q01DX009 (ip), vehicle: saline.
Where [4] appears, read: dose: 100.0 mg/kg/injection, schedule: Q01DX009 (ip), vehicle: saline with Tween-80.
The mark [5] stands for this setting: dose: 200.0 mg/kg/injection, schedule: Q01DX009 (ip), vehicle: saline with Tween-80.
Where [6] appears, read: dose: 100.0 mg/kg/injection, schedule: Q04DX003 (ip), vehicle: saline with Tween-80.
The mark [7] stands for this setting: dose: 200.0 mg/kg/injection, schedule: Q04DX003 (ip), vehicle: saline with Tween-80.
Where [8] appears, read: dose: 100.0 mg/kg/injection, schedule: Q04DX003 (ip), vehicle: saline.
The mark [9] stands for this setting: dose: 200.0 mg/kg/injection, schedule: Q04DX003 (ip), vehicle: saline.
[10] abbreviates: dose: 25.0 mg/kg/injection, schedule: Q01DX009 (ip), vehicle: Klucel (hydroxypropylcellulose) (HPC).
The mark [11] stands for this setting: dose: 50.0 mg/kg/injection, schedule: Q01DX009 (ip), vehicle: Klucel (hydroxypropylcellulose) (HPC).
[12] abbreviates: dose: 100.0 mg/kg/injection, schedule: Q01DX009 (ip), vehicle: Klucel (hydroxypropylcellulose) (HPC).
The mark [13] stands for this setting: dose: 25.0 mg/kg/injection, schedule: Q04DX003 (ip), vehicle: saline with Tween-80.
Setting [14] is: dose: 400.0 mg/kg/injection, schedule: Q01DX009 (ip), vehicle: saline.
Setting [15] is: dose: 50.0 mg/kg/injection, schedule: Q04DX003 (ip), vehicle: saline with Tween-80.

“And” between values parts separate entries of the source, which are not always exact repeats. Equal values may be shown once. Inconclusive results and toxic doses are left out.

Take `CN(C)N/C=N/S(C)(=O)=O`: the T/C reads like this: under setting [1], 101 % of control; under setting [2], 101 % of control; under setting [3], 109 % of control.
As for `CCC[As](=O)(O)CCC`, the T/C was 115 % of control (dose: 12.5 mg/kg/injection, schedule: Q01DX009 (ip), vehicle: saline); 110 % of control (dose: 25.0 mg/kg/injection, schedule: Q01DX009 (ip), vehicle: saline); 100 % of control (dose: 33.0 mg/kg/injection, schedule: Q01DX009 (ip), vehicle: saline); 120 % of control (dose: 75.0 mg/kg/injection, schedule: Q01DX009 (ip), vehicle: saline).
Take `CC(=O)N1C(=O)N(Cl)C(=O)C1(C)c1cccs1` (stereo unspecified): the T/C is 97 % of control (dose: 66.0 mg/kg/injection, schedule: Q01DX009 (ip), vehicle: saline with Tween-80); 103 % of control under setting [4]; 100 % of control under setting [5].
Take `CC[NH-].CC[NH-].[Br][Pt+2][Br]`: the T/C is 100 % of control (dose: 20.0 mg/kg/injection, schedule: Q04DX003 (ip), vehicle: other); 158 % of control (dose: 30.0 mg/kg/injection, schedule: Q04DX003 (ip), vehicle: other); 154 % of control and 166 % of control (dose: 44.0 mg/kg/injection, schedule: Q04DX003 (ip), vehicle: other); 159 % of control (dose: 66.0 mg/kg/injection, schedule: Q04DX003 (ip), vehicle: other); 166 % of control and 168 % of control (dose: 100.0 mg/kg/injection, schedule: Q04DX003 (ip), vehicle: other); 154 % of control (dose: 150.0 mg/kg/injection, schedule: Q04DX003 (ip), vehicle: other). The T/C (dose: 200.0 mg/kg/injection, schedule: Q04DX003 (ip), vehicle: other) is 162 % of control.
As to `Cc1ncc([N+](=O)[O-])n1CCSSCCn1c([N+](=O)[O-])cnc1C`, the T/C runs as follows: under setting [6], 118 % of control; under setting [7], 118 % of control; (dose: 400.0 mg/kg/injection, schedule: Q04DX003 (ip), vehicle: saline with Tween-80) 115 % of control.
Take `NC(=O)NN=C1COC(c2ccccc2)OC1` (stereo unspecified): the T/C reads like this: under setting [1], 110 % of control; under setting [2], 110 % of control; under setting [8], 116 % of control; under setting [3], 91 % of control; under setting [9], 104 % of control.
Consider `Cc1nc(N(C)C)c2cnn(-c3ccccc3)c2n1`, for which the T/C is, setting by setting: under setting [10], 105 % of control; under setting [11], 105 % of control; under setting [12], 105 % of control.
`COC(=O)c1[nH]c(=O)[nH]c(=O)c1F`: the T/C is 113 % of control under setting [13], 122 % of control under setting [6] and 90 % of control under setting [7].
`COc1cc2c(cc1OC)C1C(=CCC3c4cc(OC)c(OC)cc4CC[N+]31C)C=C2` (stereo unspecified): the T/C (dose: 6.25 mg/kg/injection, schedule: Q01DX009 (ip), vehicle: saline with Tween-80) was 95 % of control; the T/C (dose: 12.5 mg/kg/injection, schedule: Q01DX009 (ip), vehicle: saline with Tween-80) is 104 % of control; the T/C (dose: 25.0 mg/kg/injection, schedule: Q01DX009 (ip), vehicle: saline with Tween-80) is 116 % of control.
As to `Cc1nc(N)[nH]c(=O)c1CCCNc1cccc(C(F)(F)F)c1`, the T/C is, setting by setting: (dose: 100.0 mg/kg/injection, schedule: Q01DX001 (ip), vehicle: Klucel (hydroxypropylcellulose) (HPC)) 100 % of control; (dose: 200.0 mg/kg/injection, schedule: Q01DX001 (ip), vehicle: Klucel (hydroxypropylcellulose) (HPC)) 104 % of control; (dose: 400.0 mg/kg/injection, schedule: Q01DX001 (ip), vehicle: Klucel (hydroxypropylcellulose) (HPC)) 104 % of control.
In the case of `O=C(O)CCCOc1ccc(Cl)cc1Cl`, the T/C is 100 % of control under setting [2], 104 % of control under setting [3] and 95 % of control under setting [14].
Regarding `OCC1OC(n2cnc3c(=S)nc[nH]c32)C(O)C1O` (stereo unspecified), the T/C was 90 % of control (dose: 20.0 mg/kg/injection, schedule: Q01DX010 (ip), vehicle: saline); 100 % of control (dose: 40.0 mg/kg/injection, schedule: Q01DX010 (ip), vehicle: saline); 100 % of control (dose: 80.0 mg/kg/injection, schedule: Q01DX010 (ip), vehicle: saline); 95 % of control (dose: 160.0 mg/kg/injection, schedule: Q01DX010 (ip), vehicle: saline).
As for `COc1ccc(/C=C2\NC(=O)NC2=O)cc1O`, the T/C was 106 % of control (dose: 50.0 mg/kg/injection, schedule: Q01DX009 (ip), vehicle: saline with Tween-80); 101 % of control under setting [4]; 105 % of control under setting [5].
Take `C[N+](C)(Cn1nc(Cl)c2ccc([N+](=O)[O-])cc21)Cn1nc(Cl)c2ccc([N+](=O)[O-])cc21`: the T/C by setting is: under setting [6], 100 % of control; under setting [7], 108 % of control.
For `ClCCCN1CCN(CCCCl)CC1`, the T/C is, setting by setting: (dose: 6.25 mg/kg/injection, schedule: Q01DX009 (ip), vehicle: distilled water + alcohol) 101 % of control; (dose: 12.5 mg/kg/injection, schedule: Q01DX009 (ip), vehicle: distilled water + alcohol) 99 % of control; (dose: 25.0 mg/kg/injection, schedule: Q01DX009 (ip), vehicle: distilled water + alcohol) 115 % of control; (dose: 100.0 mg/kg/injection, schedule: Q01DX009 (ip), vehicle: distilled water + alcohol) 171 % of control.
`CN(C)c1ccc(C(C[N+](=O)[O-])(c2ccc(N(C)C)cc2)c2ccc(N(C)C)cc2)cc1`: the T/C is 100 % of control (dose: 100.0 mg/kg/injection, schedule: Q04DX003 (ip), vehicle: Klucel (hydroxypropylcellulose) (HPC)); 90 % of control (dose: 200.0 mg/kg/injection, schedule: Q04DX003 (ip), vehicle: Klucel (hydroxypropylcellulose) (HPC)); 100 % of control (dose: 400.0 mg/kg/injection, schedule: Q04DX003 (ip), vehicle: Klucel (hydroxypropylcellulose) (HPC)).
Regarding `CCOC(=O)CCC1(CCC(=O)OCC)OCCO1`, the T/C is 91 % of control under setting [4]; 95 % of control under setting [8]; 95 % of control under setting [5]; 109 % of control under setting [9]; 108 % of control (dose: 400.0 mg/kg/injection, schedule: Q01DX009 (ip), vehicle: saline with Tween-80); 109 % of control (dose: 400.0 mg/kg/injection, schedule: Q04DX003 (ip), vehicle: saline).
On to `Cc1nnc2ncccn12`, for which the T/C runs as follows: under setting [1], 96 % of control and 102 % of control and 106 % of control; under setting [2], 97 % of control and 102 % of control (2×); under setting [3], 115 % of control; under setting [14], 93 % of control.
For `COC(=O)C1CCN(Cc2c[nH]c3ccccc23)CC1`, the T/C (dose: 12.5 mg/kg/injection, schedule: Q04DX003 (ip), vehicle: saline with Tween-80) was 96 % of control; the T/C under setting [13] was 96 % of control; the T/C under setting [15] is 111 % of control; the T/C under setting [6] was 102 % of control.
Turning to `Nc1nc(N)c2nc(CNc3ccc(C(=O)NC(CC(=O)O)C(=O)O)cc3)cnc2n1` (stereo unspecified), the T/C (dose: 66.0 mg/kg/injection, schedule: Q04DX003 (ip), vehicle: saline with Tween-80) was 104 % of control and the T/C under setting [6] was 100 % of control.
In the case of `CC(C)CSP(=S)(c1cc(Cl)ccc1Cl)c1cc(Cl)ccc1Cl`, the T/C by setting is: (dose: 50.0 mg/kg/injection, schedule: Q01DX009 (ip), vehicle: other) 102 % of control; (dose: 100.0 mg/kg/injection, schedule: Q01DX009 (ip), vehicle: other) 101 % of control; (dose: 200.0 mg/kg/injection, schedule: Q01DX009 (ip), vehicle: other) 105 % of control.
Turning to `O=C(O)/C=C/C(=O)Nc1ccc(Cl)c(Cl)c1`, the T/C runs as follows: under setting [10], 104 % of control; under setting [11], 111 % of control; under setting [12], 111 % of control.
On to `O=NN(CCCl)C(=O)N[C@H]1CCCC[C@@H]1Cl`, for which the T/C was 272 % of control (dose: 33.0 mg/kg/injection, schedule: Q04DX003 (ip), vehicle: saline with Tween-80); 272 % of control under setting [15]; 213 % of control (dose: 75.0 mg/kg/injection, schedule: Q04DX003 (ip), vehicle: saline with Tween-80).
